According to US20230399661A1, “SHUTTLE AGENT PEPTIDES OF MINIMAL LENGTH AND VARIANTS THEREOF ADAPTED FOR TRANSDUCTION OF CAS9-RNP AND OTHER NUCLEOPROTEIN CARGOS” (priority 2020, published 2023):

Assays:
Assay type in all cases: cell-based, Human
[1] = system: HeLa cells; test: GFP-NLS transduction in the presence or absence of Cas9-RNP complex, flow cytometry; set-up: GFP transduction efficiency: concentration or dose not given beside the values; conditions: for resistance/sensitivity of GFP transduction to inhibition by Cas9-RNP: presence vs absence of Cas9-RNP
Method: HeLa cells were plated (20 000 cells/well) in a 96 well-plate the day prior to the experiment in DMEM containing 10% FBS. A mix was prepared containing a synthetic peptide shuttle agent (10-30 μM), the GFP-NLS (10 μM) with or without a Cas9-NLS recombinant protein (2.5 μM) complexed with a crRNA/tracrRNA (2 μM) targeting the beta-2 microglobulin (B2M) gene and completed to 50 μL with PBS. Cells were washed once with PBS and the shuttle/GFP-NLS/Cas9-RNP mix was added to the cells and incubated for one minute. Then 100 μL DMEM containing 10% FBS was added to the mix. Cells were then immediately washed once with PBS and incubated in DMEM containing 10% FBS for two hours. Cells were the analyzed by flow cytometry.
To better understand the inhibitory effect of Cas9-RNP on shuttle agent transduction activity, HeLa cells were incubated with different peptides/shuttle agents and GFP cargo, in the presence or absence of Cas9-RNP, and delivery of GFP was assessed by flow cytometry, as described in Example 1. […] For some shuttle agents, the effect was particularly striking. For example, the GFP transduction efficiency for FSD268 decreased from 92% to 29%, the GFP transduction efficiency for FSD250 decreased from 83% to 13%, the GFP transduction efficiency for FSD10 decreased from 76% to 22%, and the GFP transduction efficiency for FSD395 decreased from 91% to 17%. […] Structure-activity relationships were explored further by repeating the above transduction experiments with shuttle agent variants sharing the same “core” amphipathic cationic alpha helical region as FSD10-15 (FIG. 4A), CM18 (FIG. 4B), and FSD356 (FIG. 4C).

[2] = system: RH-30 cells; test: PMO-FITC transduction in the presence of sgRNA spiked in the medium, flow cytometry; conditions: 5 μM shuttle agent, 6 μM PMO-FITC, 2 μg of sgRNA (4 μg/mL)
From the text: Nuclear delivery of Cas9-sgRNA complexes (hereinafter Cas9-RNP) via first- and second-generation synthetic peptide shuttle agents generally occurs less efficiently than delivery of a Cas9 proteinaceous cargo alone (i.e., without its corresponding sgRNA; see Krishnamurthy et al., 2019, supplementary FIG. 6). The negative effect of the sgRNA (without Cas9) on shuttle agent-mediated transduction of a fluorescently-labelled charge-neutral polynucleotide analog cargo (phosphorodiamidate morpholino oligomer (PMO)) is also shown in FIG. 2A. Briefly, RH-30 cells (150,000 cells/well in 24-well dish) were contacted with a delivery mix containing 6 μM of PMO-FITC and 5 μM of the synthetic peptide shuttle agent FSD250 for 2 minutes in RPMI, in the presence of increasing amounts of sgRNA spiked in the medium. Cells were then washed, incubated in complete medium and then collected for analysis by flow cytometry after 1 h.

[3] = system: CFF-16HBEge cells; test: ABE-Cas9-RNP delivery, base editing evaluated by next-generation sequencing; conditions: NGS, compared to non-treated cells
Method: (§1) For Cas9-RNP or ABE-Cas9-RNP transduction, a mix of Cas9-NLS or ABE-Cas9 recombinant protein (2.5 μM) complexed with a crRNA/tracrRNA (2 μM) targeting the beta-2 microglobulin (B2M) gene were co-incubated with 10-20 μM of synthetic peptide shuttle agent in a final volume of 50 μL completed with PBS. Cells were washed once with PBS and the shuttle/Cas9-RNP complex was added to the cells for and incubated for 60 to 90 seconds. Then 100 μL of DMEM (HeLa) or Alpha-MEM (CFF-16HBEge) containing 10% FBS was added to the mix. Cells were then immediately washed once with PBS and incubated in DMEM (HeLa) or Alpha-MEM (CFF-16HBEge) containing 10% FBS.
(§2) Further transduction experiments in CFF-16HBEge cells were performed to compare the ability of shuttle agents to deliver functional Cas9-RNP genome editing versus ABE-Cas9-RNP base editing complexes. Variants of the shuttle agent FSD10 (FIG. 8A) were tested in parallel, and genome editing/base editing results as evaluated by next-generation sequencing (NGS) are shown in FIGS. 8B and 8C for Cas9-RNP and ABE-Cas9-RNP, respectively.

[4] = system: CFF-16HBEge cells; test: Cas9-RNP delivery, B2M genome editing; conditions: for genome editing (Cas9-RNP): NGS, compared to non-treated cells; for genome editing with Cas9-RNP as cargo: B2M knockout, versus non-treated negative control
Method: HeLa cells were plated (10 000 cells/well) in a 96 well-plate the day prior to the experiment in DMEM containing 10% FBS. CFF-16HBEge cells were plated (10 000 cells/well) in a 96 well-plate the day prior to the experiment in Alpha-MEM containing 10% FBS.
as §1
Genome editing events resulting in the absence of B2M protein (knockout) at the cell surface were determined by flow cytometry 6 days post-transduction. Cells were washed once with PBS and incubated with the anti-B2 microglobulin antibody (PE conjugated) (0.5 μL of anti-B2M-PE in […] 0.5% BSA/PBS) for 45 minutes at room temperature. Cells were washed twice with PBS and detached with 50 µL of Trypsin-EDTA for 10 minutes at 37° C. then inactivated by adding 100 μL of media containing 10% FBS. The percentage of knockout cells (cells without B2M antibody signal) was determined by flow cytometry.
A similar genome editing experiment as in Example 6 was performed in the Human Bronchial Epithelial cell line model of cystic fibrosis, CFF-16HBEge.
as §2

[5] = system: HeLa cells; test: GFP-NLS transduction in presence of Cas9-RNP complex coated with small molecules; conditions: shuttle agent FSD250, up to 10 mM of the small molecule
Method: HeLa cells were plated (20 000 cells/well) in a 96 well-plate the day prior to the experiment in DMEM containing 10% FBS. The Cas9-RNP complex coated with small molecules was prepared by mixing a Cas9-NLS recombinant protein (5 μM) complexed with a crRNA/tracrRNA (4 μM) targeting the beta-2 microglobulin (B2M) gene with 0, 100 nM, 1 μM, 10 μM, 100 μM, 1 mM or 10 mM of either 1,3-diaminoguanidine monohydrochloride, 3,5-diamino-1,2,4-triazole, guanidine hydrochloride or L-arginine amide dihydrochloride. The Cas9 RNP complex coated with small molecules was completed to […] with PBS. The delivery mix was prepared by mixing a synthetic peptide shuttle agent (10 μM), the GFP-NLS (10 μM) with or without the Cas9 RNP complex coated or not with small molecules and completed to 50 μL with phosphate-buffered saline PBS. […] Cells were then analyzed by flow cytometry.
Hypothesizing that the inhibitory effect of the sgRNA was due to the negatively charged phosphate backbone of the RNA, we attempted to neutralize the negative charges by coating the Cas9-RNP complexes with small positively charged molecules prior to transduction. Delivery of GFP in HeLa cells in the presence of Cas9-RNP was assessed in the presence of small positively charged molecules such as 1,3-diaminoguanidine monohydrochloride; 3,5-diamino-1,2,4-triazole; guanidine hydrochloride; or L-arginine amide dihydrochloride.

[6] = system: HeLa cells; test: GFP or PI delivery by short/truncated shuttle agents, flow cytometry; conditions: GFP or PI cargo
Method: HeLa cells were plated (20 000 cells/well) in a 96 well-plate the day prior to the experiment in DMEM containing 10% FBS. Each delivery mix comprising a synthetic peptide shuttle agent (10-30 μM) and GFP-NLS (10 μM) was prepared and completed to 50 μL with RPMI 1640 media. Cells were washed once with phosphate-buffered saline (PBS) and the shuttle/GFP-NLS mix was added to the cells and incubated for five minutes. Then 100 μL DMEM containing 10% FBS was added to the mix. Cells were then immediately washed once with PBS and incubated in DMEM containing 10% FBS for two hours. Cells were then analyzed by flow cytometry.
HeLa cells were plated (20 000 cells/well) in a 96 well-plate the day prior to the experiment in DMEM containing 10% FBS. […] Cells were then analyzed by flow cytometry.
To test the transduction activity of short/truncated synthetic shuttle agents (e.g., generally having less than 20 amino acids), HeLa cells were incubated with control peptides and N-terminal shuttle agent fragments of different lengths and delivery of GFP or PI was assessed by flow cytometry as described in Example 1. […] The Overall Delivery Factor represents a single number that accounts for the toxicity of each shuttle agent/peptide, as well as its ability to deliver GFP and PI, and was calculated as follows: […]

FSD250: synthetic peptide shuttle agent; FSD446 with C-terminal segment replaced with a cationic segment (KWKLLKLWSRLLKLWGGSGGGSARAARQAR; FSD250)
GFP transduction efficiency ([1]; absence of Cas9-RNP): 83%
GFP transduction efficiency ([1]; presence of Cas9-RNP): 13%
cargo transduction efficiency (PMO-FITC) [2]: reduced cargo transduction efficiency

FSD10-Cter: negative control peptide consisting of the C-terminal cationic portion of FSD10 alone (YARALRRQARTG; FSD10-Cter)
base editing (ABE-Cas9-RNP) [3]: did not exhibit any detectable genome editing or base editing
genome editing (Cas9-RNP) [4]: did not exhibit any detectable genome editing

FSD395: synthetic peptide shuttle agent (KLKLLKLLLKLLKKLGGSGGGSQAKAQAKQAK; FSD395)
GFP transduction efficiency ([1]; absence of Cas9-RNP): 91%
GFP transduction efficiency ([1]; presence of Cas9-RNP): 17%
genome editing with Cas9-RNP as cargo [4]: failed to show any increase in genome editing

FSD322: synthetic peptide shuttle agent (KWKLAKAWSRALKLWGGSGGGSARAQARQA; FSD322)
genome editing with Cas9-RNP as cargo [4]: failed to show any increase in genome editing

Linker-(FSD10-Cter)-Linker: negative control peptide: C-terminal cationic portion of FSD10 flanked by glycine/serine-rich linkers (GGSGGGSYARALRRQARTGGGSGGGS; Linker-(FSD10-Cter)-Linker)
base editing (ABE-Cas9-RNP) [3]: did not exhibit any detectable genome editing or base editing
genome editing (Cas9-RNP) [4]: did not exhibit any detectable genome editing

Cl.N=C(NN)NN [1,3-diaminoguanidine monohydrochloride]
GFP transduction activity and Mean GFP delivery Scores in presence of Cas9-RNP coated with charge-neutralizing agent [5]: significantly inhibited

FSD397: synthetic peptide shuttle agent (KLKLAKALAKALKKLGGSGGGSQAKAQAKQAK; FSD397)
genome editing with Cas9-RNP as cargo [4]: failed to show any increase in genome editing

FSD10: synthetic peptide shuttle agent; FSD10-15 core, glycine/serine-rich linker and second cationic domain (KWKLARAFARAIKKLGGSGGGSYARALRRQARTG; FSD10)
GFP transduction efficiency ([1]; absence of Cas9-RNP): 76%
GFP transduction efficiency ([1]; presence of Cas9-RNP): 22%
resistance/sensitivity of GFP transduction to inhibition by Cas9-RNP [1]: more sensitive to inhibition by Cas9-RNP
genome editing with Cas9-RNP as cargo [4]: failed to show any increase in genome editing

CM18: CM series peptide, 18 amino acids long; endosome leakage domain in some first generation shuttle agents (KWKLFKKIGAVLKVLTTG; CM18) [reference compound]
GFP delivery score ([1]; FIGS. 3 and 4B, presence or absence of Cas9-RNP not stated): 1.8
GFP transduction efficiency ([1]; absence of Cas9-RNP): 32%
GFP transduction efficiency ([1]; presence of Cas9-RNP): 28%
resistance/sensitivity of GFP transduction to inhibition by Cas9-RNP [1]: more resistant
transduction activity [6]: transduction activity was observed

FSD374: core amphipathic cationic domain (as FSD174) flanked by short segments of non-cationic hydrophilic residues (GGSGGGSLLKIWSRLIKIWTQGRRLGGSGGGS; FSD374)
resistance/sensitivity of GFP transduction to inhibition by Cas9-RNP [1]: virtually the same GFP transduction efficiency in the presence or absence of Cas9-RNP
genome editing with Cas9-RNP as cargo [4]: significant genome editing
